From article PMC11550005, “On the function of TRAP substrate-binding proteins: Conformational variation of the sialic acid binding protein SiaP” (The Journal of Biological Chemistry, 2024)

What was measured:
[1] = target: T1, AaSiaP (TRAP N-acetylneuraminate substrate-binding protein SiaP) (Aggregatibacter actinomycetemcomitans, UniProt A0A5D0EK58); test: microscale thermophoresis; also crystal structure ([…] A), DSF, SAXS; design: gene ACT75_01630; mature chain without native signal peptide (replaced by pelB), residual N-terminal Met-Asp; strain 624, WP_005538762.1
[2] = target: T1, AaSiaP (TRAP N-acetylneuraminate substrate-binding protein SiaP); test: microscale thermophoresis; design: gene ACT75_01630; mature chain without native signal peptide (replaced by pelB), residual N-terminal Met-Asp; strain 624, WP_005538762.1
[3] = target: T1, AaSiaP (TRAP N-acetylneuraminate substrate-binding protein SiaP); design: gene ACT75_01630

T1 sequence (A0A5D0EK58 entry or part of it): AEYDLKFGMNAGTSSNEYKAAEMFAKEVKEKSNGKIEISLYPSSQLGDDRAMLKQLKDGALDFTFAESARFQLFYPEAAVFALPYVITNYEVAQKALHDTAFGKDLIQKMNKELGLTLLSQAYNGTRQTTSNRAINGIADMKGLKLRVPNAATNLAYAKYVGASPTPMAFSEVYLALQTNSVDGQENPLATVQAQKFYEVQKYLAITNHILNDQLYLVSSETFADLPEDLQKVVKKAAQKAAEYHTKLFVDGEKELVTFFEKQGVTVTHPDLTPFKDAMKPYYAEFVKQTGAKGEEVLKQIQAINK

CC(=O)N[C@H]1[C@H]([C@H](O)[C@H](O)CO)O[C@](O)(C(=O)O)C[C@@H]1O [Neu5Ac, N-acetylneuraminate]
Kd [1]: 430 nM

O=C(CO)N[C@H]1[C@H]([C@H](O)[C@H](O)CO)O[C@@](O)(C(=O)O)C[C@@H]1O [Neu5Gc, N-glycolylneuraminate]
Kd [2]: 4400 nM

CC(=O)O [acetate]
crystal structure (2.58 A, chains A and B); acetate from the crystallization cond [3]: Acetate makes favorable interactions with residues R127, R147, and N189 on domain II within the binding site of AaSiaP
